Measured values reported in patent US12234222B2, “Piperazine amide derivative, preparation method therefor, and use thereof in medicine” (ZHEJIANG HISUN PHARMACEUTICAL CO., LTD., priority 2019, dated 2025).

Assays:
KDR kinase = KDR kinase (Homo sapiens (Human), UniProt P35968); assay: KDR control kinase activity, HTRF KinEASE-TK TR-FRET assay; assay type: biochemical; settings: inhibition of KDR kinase; 16000 nM~0.04 nM, 2% DMSO
Experimental: (§1) In this method, HTRF®KinEASE-TK Tyrosine Kinase Kit (Cat. No. 62TK0PEB) of Cisbio was used to determine the degree of phosphorylation of biotinylated polypeptide substrates by time-resolved fluorescence energy transfer (TR-FRET). Human RET protein (RET kinase) was purchased from Carna bioscience (Japan, Cat. No. 08-159-5 μg).
(§2) The experimental steps are as follows: • (1) The test compound (the compound of the present disclosure, and compound 164 in WO2018017983A1 as a control) was dissolved in 100% DMSO to a final concentration of 10 mM. • (2) 4 μL of the test compound solution prepared in step (1) was dissolved with 46 μL of 100% DMSO, and the solution obtained in this step was numbered as No. 2. • (3) No. 2 solution was subjected to subsequent gradient dilution with a dilution factor of 5 times (i.e. 20 μL of 100% DMSO was added to 5 μL of the compound), a total of 9 gradients, numbered 3 to 11.
(§3) (Unless otherwise specified, the following steps need to be carried out on ice) • (4) The buffer provided in the kit (Cisbio, Cat. No. 62TK0PEB) was used to continuously serially dilute the solutions numbered from 3 to 11 with a dilution factor of 20 times (that is, adding 19 μL of buffer to the solutions numbered from 3 to 11). At this time, the final concentration range of the test compound in the system No. 3 to 11 was 3200 nM˜0.008 nM (9 gradients), and the final concentration of DMSO was 2%. • (5) 9 compound solutions of gradient concentration in step (4) were added into a 384-well plate in order according to their concentration at 4 μL per well, and two duplicate wells were set. • (6) 2 μL of human RET protein was added to each well and incubated on ice for 10 minutes. • (7) 2 μL of ATP (Sigma #A7699) and 2 μL of biotinylated polypeptide substrate (Cisbio, Cat. No. 62TK0PEB) were added to each well to start the phosphorylation reaction, and incubated at 37° C. for half an hour. • (8) 5 μL of anti-phosphotyrosine antibody coupled with europium compound (provided in the kit, Cat. No. 62TK0PEB) and 5 μL of streptavidin coupled with modified allophycocyanin XL665 (Cisbio, Cat. No. 62TK0PEB) were added to each well. • (9) The plate was continued to incubate for 1 hour at room temperature. After the incubation, the TF-FRET mode of the microplate reader (BMG Labtech, model: FLUOStar Omega) was adopted to measure the fluorescence intensity at an excitation wavelength of 304 nm and emission wavelengths of 615 nm and […] in each well. The ratio would be calculated automatically. • (10) By comparing the fluorescence intensity ratio in the control group, the inhibition rate of the compound at each concentration was calculated, and GraphPad Prism 5 was used to perform curve fitting with logarithmic concentration-inhibition rate to calculate the IC50 value of the compound.
The selected control kinase is another receptor tyrosine kinase, KDR, with similar structure to RET kinase, purchased from Carna bioscience (Japan, Cat. No. 08-191-5 μg). The step of gradient dilution was the same as that of RET kinase, and the final concentration range of the test compound in the reaction system was 16000 nM˜0.04 nM (No. 2-10 solutions were used for the gradient dilution in step 4). Other reaction conditions were the same as above, and the final concentration of DMSO was 2%. The calculation method for the IC50 value of KDR kinase inhibition by the test compound was the same as the calculation method for the IC50 value of RET kinase inhibition.

[1] = target: Human RET protein (RET kinase) (Homo sapiens (Human), UniProt P07949); assay: RET kinase activity, HTRF KinEASE-TK TR-FRET assay; assay type: biochemical; settings: inhibition of RET kinase; 9 concentrations 3200 nM~0.008 nM, 2% DMSO
Experimental: Test Example 1. Determination of the Activity of the Compound of the Present Disclosure on RET Kinase
as §1, §2
Note: No. 2 was not used for the dilution in step (4).
as §3

Chain of Human RET protein (RET kinase) (P07949 29-1114): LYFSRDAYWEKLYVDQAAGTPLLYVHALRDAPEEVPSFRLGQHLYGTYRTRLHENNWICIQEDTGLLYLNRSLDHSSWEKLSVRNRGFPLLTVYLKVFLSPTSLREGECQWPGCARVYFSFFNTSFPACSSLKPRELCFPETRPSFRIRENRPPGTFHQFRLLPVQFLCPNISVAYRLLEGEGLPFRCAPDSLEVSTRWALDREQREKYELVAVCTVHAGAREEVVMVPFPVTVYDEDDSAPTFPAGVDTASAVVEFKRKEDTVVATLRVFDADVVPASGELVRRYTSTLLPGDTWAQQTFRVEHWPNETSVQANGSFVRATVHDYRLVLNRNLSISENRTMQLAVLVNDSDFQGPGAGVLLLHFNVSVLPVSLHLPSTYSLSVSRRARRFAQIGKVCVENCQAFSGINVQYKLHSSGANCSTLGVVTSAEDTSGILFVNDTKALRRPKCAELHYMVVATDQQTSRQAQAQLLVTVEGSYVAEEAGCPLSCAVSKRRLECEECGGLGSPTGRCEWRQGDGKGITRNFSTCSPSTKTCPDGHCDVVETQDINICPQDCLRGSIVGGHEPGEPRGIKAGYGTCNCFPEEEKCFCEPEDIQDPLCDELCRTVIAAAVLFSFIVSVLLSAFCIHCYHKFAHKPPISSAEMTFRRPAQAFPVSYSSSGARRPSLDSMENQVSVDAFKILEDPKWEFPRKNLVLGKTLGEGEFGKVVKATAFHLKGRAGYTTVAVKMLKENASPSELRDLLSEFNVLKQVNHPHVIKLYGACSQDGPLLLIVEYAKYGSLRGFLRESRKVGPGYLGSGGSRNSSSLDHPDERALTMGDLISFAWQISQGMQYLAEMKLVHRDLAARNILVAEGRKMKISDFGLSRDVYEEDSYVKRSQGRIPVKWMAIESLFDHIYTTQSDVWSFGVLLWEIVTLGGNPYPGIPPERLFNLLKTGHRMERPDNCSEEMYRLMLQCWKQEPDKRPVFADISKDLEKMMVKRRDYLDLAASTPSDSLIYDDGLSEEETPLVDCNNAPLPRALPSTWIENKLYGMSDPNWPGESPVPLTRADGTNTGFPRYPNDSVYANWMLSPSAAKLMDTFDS
Chain of KDR kinase (P35968 20-1356): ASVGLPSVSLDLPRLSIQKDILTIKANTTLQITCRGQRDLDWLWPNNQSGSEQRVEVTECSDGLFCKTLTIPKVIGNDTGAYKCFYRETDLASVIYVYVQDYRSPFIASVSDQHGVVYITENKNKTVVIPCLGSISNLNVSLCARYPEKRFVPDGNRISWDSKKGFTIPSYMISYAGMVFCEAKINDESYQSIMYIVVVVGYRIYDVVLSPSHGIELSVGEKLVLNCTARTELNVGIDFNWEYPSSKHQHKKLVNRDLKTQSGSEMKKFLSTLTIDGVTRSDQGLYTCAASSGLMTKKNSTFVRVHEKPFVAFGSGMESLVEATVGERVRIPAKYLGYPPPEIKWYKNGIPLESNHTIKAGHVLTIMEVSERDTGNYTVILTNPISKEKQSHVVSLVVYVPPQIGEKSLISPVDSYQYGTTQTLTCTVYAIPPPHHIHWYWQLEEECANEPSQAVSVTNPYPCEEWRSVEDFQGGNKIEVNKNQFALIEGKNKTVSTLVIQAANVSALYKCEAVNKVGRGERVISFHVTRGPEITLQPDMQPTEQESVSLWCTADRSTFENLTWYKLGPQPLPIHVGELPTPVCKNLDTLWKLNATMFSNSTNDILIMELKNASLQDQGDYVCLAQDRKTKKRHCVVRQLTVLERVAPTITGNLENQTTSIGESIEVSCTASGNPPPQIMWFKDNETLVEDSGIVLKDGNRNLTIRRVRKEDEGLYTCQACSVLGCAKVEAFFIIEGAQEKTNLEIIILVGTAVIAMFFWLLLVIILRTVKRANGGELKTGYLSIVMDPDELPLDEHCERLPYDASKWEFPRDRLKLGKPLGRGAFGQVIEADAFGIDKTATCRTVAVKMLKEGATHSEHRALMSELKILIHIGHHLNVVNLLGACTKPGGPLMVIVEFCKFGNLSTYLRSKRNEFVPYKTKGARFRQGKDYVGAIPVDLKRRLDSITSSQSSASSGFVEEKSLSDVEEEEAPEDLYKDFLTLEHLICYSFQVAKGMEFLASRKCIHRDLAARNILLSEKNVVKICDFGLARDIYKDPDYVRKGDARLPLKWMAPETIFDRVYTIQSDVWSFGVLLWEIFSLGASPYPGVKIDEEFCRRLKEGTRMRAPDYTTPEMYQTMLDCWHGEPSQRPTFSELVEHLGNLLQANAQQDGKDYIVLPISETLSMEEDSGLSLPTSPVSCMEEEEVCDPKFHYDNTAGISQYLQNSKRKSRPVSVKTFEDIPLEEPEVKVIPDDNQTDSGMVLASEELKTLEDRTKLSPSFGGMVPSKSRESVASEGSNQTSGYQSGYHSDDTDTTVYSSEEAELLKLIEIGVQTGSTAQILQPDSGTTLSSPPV

**Q.** How did the IC50 (KDR kinase) turn out when `Cc1cc(Nc2cc(C)[nH]n2)nc(N2CCC(C(=O)N[C@@H](C)c3ccc(-n4cc(F)cn4)nc3)CC2)c1` [Compound 164, reference compound] was run?
**A.** 2300 nM

**Q.** And the IC50 [1]?
**A.** 73 nM

**Q.** For `Cc1cc(Nc2cc(C)[nH]n2)nc(N2CCN(C(=O)c3ccc(-n4cc(F)cn4)nc3)CC2)n1` [Compound I-1, (6-(4-fluoro-1H-pyrazol-1-yl)pyridin-3-yl)(4-(4-methyl-6-((5-methyl-1H-pyrazol-3-yl)amino)pyrimidin-2-yl)piperazin-1-yl)methanone], which IC50 (KDR kinase) is on record?
**A.** 1130 nM

**Q.** And the IC50 [1]?
**A.** 12.5 nM

**Q.** `Cc1cc(Nc2cc(C)[nH]n2)nc(N2CCN(C(=O)c3ccc(-n4cc(F)cn4)nc3)[C@@H](C)C2)n1` [Compound I-2, (S)-(6-(4-fluoro-1H-pyrazol-1-yl)pyridin-3-yl)(2-methyl-4-(4-methyl-6-((5-methyl-1H-pyrazol-3-yl)amino)pyrimidin-2-yl)piperazin-1-yl)methanone] was tested. Which IC50 (KDR kinase) did it give?
**A.** 851 nM

**Q.** And the IC50 [1]?
**A.** 11.8 nM

**Q.** For `Cc1cc(Nc2cc(C)[nH]n2)nc(N2CC3CCC(C2)N3C(=O)c2ccc(-n3cc(F)cn3)nc2)n1` [Compound I-4, (6-(4-fluoro-1H-pyrazol-1-yl)pyridin-3-yl)(3-(4-methyl-6-((5-methyl-1H-pyrazol-3-yl)amino)pyrimidin-2-yl)-3,8-diazabicyclo [3.2.1]octane-8-yl) methanone], which IC50 (KDR kinase) is on record?
**A.** 80 nM

**Q.** And the IC50 [1]?
**A.** 1.4 nM

**Q.** How did the IC50 (KDR kinase) turn out when `Cc1cc(Nc2nc(N3CC4CCC(C3)N4C(=O)c3ccc(-n4cc(F)cn4)nc3)nc3ccccc23)n[nH]1` [Compound I-5, (6-(4-fluoro-1H-pyrazol-1-yl)pyridin-3-yl)(3-(4-((5-methyl-1H-pyrazol-3-yl)amino)quinazoline-2-yl)-3,8-diazabicyclo[3.2.1]octane-8-yl)methanone] was run?
**A.** 149 nM

**Q.** What about the IC50 [1] of the same compound?
**A.** 6.2 nM

**Q.** For `Cc1cc(Nc2cc(C)[nH]n2)nc(N2CC3COCC(C2)N3C(=O)c2ccc(-n3cc(F)cn3)nc2)n1` [Compound I-7, (6-(4-fluoro-1H-pyrazol-1-yl)pyridin-3-yl)(7-(4-methyl-6-((5-methyl-1H-pyrazol-3-yl)amino)pyrimidin-2-yl)-3-oxa-7,9-diazabicyclo [3.3.1]nonane-9-yl)methanone], which IC50 (KDR kinase) is on record?
**A.** 391 nM

**Q.** What about the IC50 [1] of the same compound?
**A.** 10.3 nM

**Q.** For `Cc1cc(Nc2cc(C)[nH]n2)nc(N2C3CCC2CN(C(=O)c2ccc(-n4cc(C#N)cn4)nc2)C3)n1` [Compound I-9], which IC50 (KDR kinase) is on record?
**A.** 304 nM

**Q.** And the IC50 [1]?
**A.** 8.6 nM

**Q.** Which IC50 (KDR kinase) does the source give for `Cc1cc(Nc2cc(C)[nH]n2)nc(N2CC3CCC(C2)N3C(=O)c2ccc(N3CC4C(C3)C4(C)C)nc2)n1` (centres unmarked) [Compound I-10, (6-(6,6-dimethyl-3-azabicyclo [3.1.0]hexane-3-yl)pyridin-3-yl)(3-(4-methyl-6-((5-methyl-1H-pyrazol-3-yl)amino)pyrimidin-2-yl)-3,8-diazabicyclo[3.2.1]octane-8-yl)methanone] here?
**A.** 1550 nM

**Q.** And the IC50 [1]?
**A.** 7.3 nM

**Q.** Which IC50 (KDR kinase) does the source give for `COC(=O)c1cc(Nc2cc(C)[nH]n2)nc(N2CC3CCC(C2)N3C(=O)c2ccc(-n3cc(F)cn3)nc2)n1` [Compound I-11, Methyl 2-(8-(6-(4-fluoro-1H-pyrazol-1-yl)nicotinoyl)-3,8-diazabicyclo[3.2.1]octane-3-yl)-6-((5-methyl-1H-pyrazol-3-yl)amino)pyrimidin-4-carboxylate] here?
**A.** 1020 nM

**Q.** And the IC50 [1]?
**A.** 24.7 nM

**Q.** With `Cc1cc(Nc2cc(C)[nH]n2)nc(N2CCN(C(=O)c3ccc(-n4cc(F)cn4)nc3)C3(CC3)C2)n1` [Compound I-12, (6-(4-fluoro-1H-pyrazol-1-yl)pyridin-3-yl)(7-(4-methyl-6-((5-methyl-1H-pyrazol-3-yl)amino)pyrimidin-2-yl)-4,7-diazaspiro[2.5]octane-4-yl)methanone] as the compound, how does the IC50 (KDR kinase) read?
**A.** 180 nM

**Q.** What about the IC50 [1] of the same compound?
**A.** 0.6 nM

**Q.** With `Cc1cc(Nc2cc(C)[nH]n2)nc(N2CC3CCC(C2)N3C(=O)c2ccc(-n3cc(F)cn3)nn2)n1` [Compound I-13, (6-(4-fluoro-1H-pyrazol-1-yl)pyridazin-3-yl)(3-(4-methyl-6-((5-methyl-1H-pyrazol-3-yl)amino)pyrimidin-2-yl)-3,8-diazabicyclo[3.2.1]octane-8-yl)methanone] as the compound, how does the IC50 (KDR kinase) read?
**A.** 78 nM

**Q.** And the IC50 [1]?
**A.** 1.5 nM

**Q.** `Cc1cc(Nc2cc(C(F)(F)F)nc(N3CC4CCC(C3)N4C(=O)c3ccc(-n4cc(F)cn4)nn3)n2)n[nH]1` [Compound I-16, (6-(4-fluoro-1H-pyrazol-1-yl)pyridazin-3-yl)(3-(4-((5-methyl-1H-pyrazol-3-yl)amino)-6-(trifluoromethyl)pyrimidin-2-yl)-3,8-diazabicyclo[3.2.1]octane-8-yl)methanone] was tested. Which IC50 (KDR kinase) did it give?
**A.** 738 nM

**Q.** What about the IC50 [1] of the same compound?
**A.** 8 nM

**Q.** With `Cc1cc(Nc2cc(C(=O)O)nc(N3CC4CCC(C3)N4C(=O)c3ccc(-n4cc(F)cn4)nc3)n2)n[nH]1` [Compound I-19, 2-(8-(6-(4-fluoro-1H-pyrazol-1-yl)nicotinoyl)-3,8-diazabicyclo[3.2.1]octane-3-yl)-6-((5-methyl-1H-pyrazol-3-yl)amino)pyrimidin-4-formic acid] as the compound, how does the IC50 (KDR kinase) read?
**A.** 2760 nM

**Q.** And the IC50 [1]?
**A.** 25.6 nM

**Q.** For `Cc1cc(Nc2cc(CO)nc(N3CC4CCC(C3)N4C(=O)c3ccc(-n4cc(F)cn4)nc3)n2)n[nH]1` [Compound I-20, (6-(4-fluoro-1H-pyrazol-1-yl)pyridin-3-yl)(3-(4-(hydroxymethyl)-6-((5-methyl-1H-pyrazol-3-yl)amino)pyrimidin-2-yl)-3,8-diazabicyclo[3.2.1]octane-8-yl)methanone], which IC50 (KDR kinase) is on record?
**A.** 1550 nM

**Q.** What about the IC50 [1] of the same compound?
**A.** 3 nM

**Q.** `Cc1cc(Nc2cc(C)[nH]n2)nc(N2CC3CCC(C2)N3C(=O)c2ccc(-c3cnn(C)c3)nn2)n1` [Compound I-22, (6-(1-methyl-1H-pyrazol-4-yl)pyridazin-3-yl)(3-(4-methyl-6-((5-methyl-1H-pyrazol-3-yl)amino)pyrimidin-2-yl)-3,8-diazabicyclo[3.2.1]octane-8-yl)methanone] was tested. Which IC50 (KDR kinase) did it give?
**A.** 221 nM

**Q.** And the IC50 [1]?
**A.** 2 nM

**Q.** For `Cc1cc(Nc2cc(C)[nH]n2)nc(N2CC3CCC(C2)N3C(=O)c2ccc(-c3cnn(C)c3)nc2)n1` [Compound I-24, (6-(1-methyl-1H-pyrazol-4-yl)pyridin-3-yl)(3-(4-methyl-6-((5-methyl-1H-pyrazol-3-yl)amino)pyrimidin-2-yl)-3,8-diazabiciyclo [3.2.1]octane-8-yl) methanone], which IC50 (KDR kinase) is on record?
**A.** 374 nM

**Q.** What about the IC50 [1] of the same compound?
**A.** 8.1 nM

**Q.** `Cc1cc(Nc2cc(C)[nH]n2)nc(N2CC3CCC(C2)N3C(=O)c2ccc(-c3ccc(F)cc3)nc2)n1` [Compound I-25, (6-(4-fluorophenyl)pyridin-3-yl)(3-(4-methyl-6-((5-methyl-1H-pyrazol-3-yl)amino)pyrimidin-2-yl)-3,8-diazabicyclo[3.2.1]octane 8-yl)methanone] was tested. Which IC50 (KDR kinase) did it give?
**A.** 260 nM

**Q.** And the IC50 [1]?
**A.** 5.6 nM

**Q.** With `Cc1cc(Nc2cc(C)[nH]n2)nc(N2CC3CCC(C2)N3C(=O)c2ccc(-c3ccncc3)nc2)n1` [Compound I-28, [2,4′-bipyridin]-5-yl(3-(4-methyl-6-((5-methyl-1H-pyrazol-3-yl)amino)pyrimidin-2-yl)-3,8-diazabicyclo [3.2.1]octane-8-yl)methanone] as the compound, how does the IC50 (KDR kinase) read?
**A.** 467 nM

**Q.** What about the IC50 [1] of the same compound?
**A.** 2.6 nM

**Q.** Which IC50 (KDR kinase) does the source give for `Cc1cc(Nc2cc(C)[nH]n2)nc(N2C3CCC2CN(C(=O)c2ccc(-n4cc(F)cn4)nn2)C3)c1` [Compound I-30, (6-(4-fluoro-1H-pyrazol-1-yl)pyridazin-3-yl)(8-(4-methyl-6-((5-methyl-1H-pyrazol-3-yl)amino)pyridin-2-yl)-3,8-diazabicyclo[3.2.1]octane-3-yl)methanone] here?
**A.** 95 nM

**Q.** What about the IC50 [1] of the same compound?
**A.** 1.8 nM
